Results from patent publication US4637996A, “Antiulcer composition containing a dipeptide compound” (Nippon Zoki Pharmaceutical Co., Ltd., priority 1984, dated 1987).

Tested on: histamine-induced ulcer formation
Experiment: Inhibition of histamine-induced ulcer formation
Assay type: in vivo, Wister strain rats
Conditions: 20 mg/kg i.v., rats, histamine dihydrochloride 300 mg/kg i.p., 4 hours; for Ulcer coefficient (mean ± S.E.): sum of surface area of ulcer lesion
Experimental: Immediately thereafter, 300 mg/kg of histamine dihydrochloride was administered intraperitoneally (i.p.) F. Burcher et al; [Beith. Path. Anat., 81, 391 (1928)]. Four hours later, each animal was bled to death by decapitation, and the stomach was removed. 7.5 ml of physiological saline was infused into the removed stomach and partially fixed in 10% formalin for 10 minutes. Then, the stomach was incised along the greater curvature. The sum of the surface area of the ulcer lesion on the glandular part of the stomach was designated as the ulcer coefficient.

Compound | Inhibition rate (%) | Ulcer coefficient (mean ± S.E.)
CN/C(=N/CCSCc1nc[nH]c1C)NC#N [Cimetidine] | 57.6 | 19.1 ± 10.6
cyclic histidyllysine | 66.8 | 14.9 ± 6.0
